Literature values, collected in patent US20190070157A1, “HYPERBARIC SOLUTION INJECTION OF LEVOBUPIVACAINE HYDROCHLORIDE COMPRISING LEVOBUPIVACAINE HYDROCHLORIDE” (NEON LABORATORIES LIMITED, priority 2015, published 2019).

Details: animal studies, compared with bupivacaine

CCCCN1CCCC[C@H]1C(=O)Nc1c(C)cccc1C [Levobupivacaine]
risk of cardiovascular and CNS toxicity: lower risk of cardiovascular and CNS toxicity than bupivacaine
